Measurements from ChEMBL document CHEMBL1201862, “PubChem BioAssay data set” (2004).
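Five concentrations, 48 hours, 96-well plates. At the GI50, growth is halved.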 Activity calls are given as the source filed them. Rule as the data show it: active = GI50 up to about 1.1 µM and inactive = higher.

Key:
[1] = system: BT-549; test: NCI anticancer screen, dose series, 48 h
[2] = system: Hs-578T; test: NCI anticancer screen, dose series, 48 h

Row | Structure (SMILES) | GI50 [1] | GI50 [2]
1 | CC(C)(C)OC(=O)NNCC(O)COc1ccccc1 (configuration not stated) | > 100 µM (inactive) | > 100 µM (inactive)
2 | O=c1cc(N2CCCC2)[nH]c(=O)n1-c1ccc(Cl)cc1 | > 100 µM (inactive) | > 100 µM (inactive)
3 | CSc1nc2c(c(=O)[nH]1)N=C(c1ccc(Cl)cc1)CC(c1ccccc1)N2 (configuration not stated) | 19.7 µM (inactive) | 
4 | CCCCCNc1nonc1N |  | > 72.8 µM (inactive)
5 | Cc1ccc2nc(N/N=C/c3sccc3C)cc(C)c2c1 | > 100 µM (inactive) | 83.2 µM (inactive)
6 | O=C(/C=C/c1ccccc1)CCN1CCCCC1 | 47.1 µM (inactive) | 30.9 µM (inactive)
7 | COC/C=C\[C@]1(O)CCCC[C@@H]1CC(OC)OC |  | > 100 µM (inactive)
8 | COc1c(-c2ccc(F)cc2)oc2cc(O)cc(O)c2c1=O |  | 35.2 µM (inactive)
9 | O=S(=O)(c1ccc(Br)cc1)N1CCN(S(=O)(=O)c2ccc(Br)cc2)CC1 | > 100 µM (inactive) | > 100 µM (inactive)
10 | CC1(C)OC2[C@@H](CO[C@@]3([C@@H](O)CCO)OC(C)(C)O[C@@H]23)O1 (some centres not stated) | > 100 µM (inactive) | 
11 | O=C(O)C1C2CCC(O2)C1C(=O)Nc1cccc2cccnc12 (configuration not stated) | > 100 µM (inactive) | 93.5 µM (inactive)
12 | c1ccc(COC[C@H]2C3OCC([C@H](OCc4ccccc4)[C@H]3OCc3ccccc3)N2Cc2ccccc2)cc1 (some centres not stated) | > 53.3 µM (inactive) | > 49.1 µM (inactive)
13 | COc1cc(C2SC(=N)Nc3c2c(C)nn3C(=O)Cc2ccccc2)cc(OC)c1OC (configuration not stated) | > 100 µM (inactive) | > 100 µM (inactive)
14 | N#CC(CCN1CCC(Nc2ccccc2)(c2nnnn2C2CCCCC2)CC1)(c1ccccc1)c1ccccc1 | > 100 µM (inactive) | > 100 µM (inactive)
15 | COc1cc(/C=C2/CCCc3ccccc3C2=O)cc(OC)c1OC | 13.8 µM (inactive) | 18.2 µM (inactive)
16 | CCCCCCCCCCCCCCCCCCNc1ccn(C2OC(CO)C(OP(=O)(O)OCC(O)COP(=O)(O)OCC3OC(n4cc(F)c(NCCCCCCCCCCCCCCCCCC)nc4=O)CC3O)C2O)c(=O)n1 (configuration not stated) | > 50 µM (inactive) | > 50 µM (inactive)
17 | CC12CCC3[C@@H](CC3(C)C)C(O)(CCC1=O)C2 (some centres not stated) |  | > 100 µM (inactive)

Row | Structure (SMILES) | GI50 [1] | GI50 [2]
18 | CCOC(=O)c1cn(-c2ccc([N+](=O)[O-])cc2)c(=S)n2c1nc1ccccc12 | 35 µM (inactive) | 
19 | CC(C)N(C(=O)C12C3(C(=O)C(C)(C)C)C4C5(C#N)C3C1(C(=O)C(C)(C)C)C5C42C(=O)C(C)(C)C)C(C)C (configuration not stated) | > 100 µM (inactive) | > 100 µM (inactive)
20 | C/C(Nc1ccc(F)cc1)=C1/CCOC1=O | > 100 µM (inactive) | > 100 µM (inactive)
21 | COc1cc2cc(C(=O)N3C[C@H](CCl)c4c3cc(N)c3ccccc43)[nH]c2c(OC)c1OC | 1.38 µM (inactive) | 0.0127 µM (active)
22 | Fc1ccc(C(OCCN2CC3CC2CN3CCCc2ccccc2)c2ccc(F)cc2)cc1 (configuration not stated) | 11.8 µM (inactive) | 10.1 µM (inactive)
23 | O=C(OCCN=c1c2ccccc2ccc2ccccc12)c1ccc([N+](=O)[O-])cc1 | > 100 µM (inactive) | > 100 µM (inactive)
24 | O=C(Oc1cncc(Cl)c1)c1cc2ccccc2sc1=O | 57.7 µM (inactive) | 38.9 µM (inactive)
25 | NNC(=O)CCC(NS(=O)(=O)c1ccc(Cl)cc1)C(=O)NN (configuration not stated) | > 100 µM (inactive) | > 100 µM (inactive)
26 | COc1ccc(/N=N/C(=N/NC(=O)c2ccccc2)c2ccc(N(CCC#N)CCC#N)cc2C)cc1 | 52.4 µM (inactive) | 23.4 µM (inactive)
27 | COc1cc2c(cc1C)NC(=O)/C2=C\c1ccncc1 |  | 3.6 µM (inactive)
28 | O=C1C(NCCc2cc(Br)c(O)c(Br)c2)=CC(=O)c2ncccc21 |  | 3.1 µM (inactive)
29 | O=c1ccc(=O)c2c1c1[nH]c3ccccc3c1c1c(=O)c3ccccc3c(=O)c21 |  | > 10 µM (inactive)
30 | CC1=NN(c2cccc(Cl)c2)C2(SCC(=O)N2c2nc3ccccc3s2)/C1=C\c1ccc(N(C)C)cc1 (configuration not stated) |  | 21 µM (inactive)
31 | CC(C)(C)OC(=O)NCCNCCNc1ccccc1 | > 100 µM (inactive) | 
32 | Cc1ccc2[nH]c3c(c2c1)CCC/C3=N/N=C(N)N | 14.5 µM (inactive) | 
33 | O=C1CC(CC(=O)c2ccc(Br)cc2)C(O)=C1C(=O)c1ccc(Br)cc1 (configuration not stated) |  | 50 µM (inactive)
